Test results as given in patent US7557092B2, “Purinergic modulation of smell” (University of Utah Research Foundation, priority 2002, dated 2009).
Where “and” joins values, the source holds several entries; their conditions need not be identical. Equal values may be shown once.

Columns and labels:
Type in all cases: cell-based
[1] = system: cultured mouse ORNs; experiment: confocal calcium imaging of fluo-4 AM loaded cultured ORNs
[2] = system: odor responses of mouse ORNs in olfactory epithelium slices; experiment: co-application of odor and purinergic receptor agonist, calcium transients in olfactory epithelium slices
[3] = system: ORNs in neonatal mouse OE slices; experiment: on-cell current-clamp recording of cyclic nucleotide-induced electrical responses; details: 10 μM ATP co-applied with cyclic nucleotide mixture (IBMX, CPT-cAMP, 8-Br-cGMP), n=3 cells
Method: Filled triangles correspond to the time of loop injection of the test solutions. […] Various test solutions were superfused onto the slice for 30 seconds, indicated by the shaded region. The cell was allowed to recover for 7 minutes after each test application. Note that the coapplication of ATP (10 μM) and the mixture suppressed the evoked membrane potential changes. […] N=3 from three slices, also indicated in each column.
Electro-olfactogram and on-cell recordings: Slices of P0-P6 mouse OE were prepared as described above and mounted in a perfusion chamber with a bath flow of […]. Test chemicals were introduced using a rotary injection valve (Rheodyne, Cotati, Calif.). The electro-olfactogram (EOG) recording electrode (3 M NaCl in 1% agar; tip diameter, 5-10 um) was positioned along the dorsal portion of the nasal septum. The differential electrode (identical to the recording electrode) was positioned over skull cartilage and an […] ground electrode was connected to the bath solution via a 3 M KCl agar bridge. […]
For the noninvasive on-cell recordings (Chiu et al., 1997), the same electronics were used as described for nystatin-patch experiments. […] The time course of solution delivery was determined by placing an electrode in a slice and switching from Ringer's solution to distilled water. […]

Nc1ncnc2c1ncn2[C@@H]1O[C@H](COP(=O)(O)OP(=O)(O)OP(=O)(O)O)[C@@H](O)[C@H]1O [ATP, Adenosine 5′-triphosphate]
ATP-induced rise in [Ca2+]i in the absence of external Ca2+, larger than in the presence of Ca2+ ([1]; 10 μM ATP, 0 Ca2+ + EGTA): 31±11%
ΔF/F increase in [Ca2+]i, average ([1]; 10 μM ATP, n=76): 151±12%
ΔF/F increase in [Ca2+]i, range ([1]; 10 μM ATP, n=76): 13-398%
EC50 ([1]; Mus musculus, averaged dose-response, maximum % ΔF/F relative to 10 μM ATP, n=58, read-out: EC50 of ATP-induced [Ca2+]i increases): 1600 nM
ORNs with rapid transient increase in [Ca2+]i ([1]; extracellularly applied ATP): 76/84
odor-responsive cells with a significant decrease in the summed [Ca2+]i increase ([2]; co-application of 10 μM ATP and odor (10 μM n-amyl acetate+10 μM R-carvone)): 62%
mean suppression of the summed [Ca2+]i increase ([2]; co-application of 10 μM ATP and odor, n=26): 57±5% and 57%±5%
mean enhancement of evoked [Ca2+]i increase ([2]; co-application of 10 μM ATP and odor, the two ORNs with >20% increase): 157±34%
reduction of the electrical activity of the ORN [3]: 67±2%
